Calls of active or inactive are those of the source. No cut-off for these calls is given here.
What was measured:
[1] = target: T1, Dual specificity mitogen-activated protein kinase kinase; MEK1/2 (Homo sapiens) (UniProt P36507+Q02750); conditions: LOX, 2 to 10 uM
Description: Inhibition of MEK1/2 in human LOX cells assessed as inhibition of ERK1/2 phosphorylation at 2 to 10 uM by Western blot analysis

[2] = target: T1, Dual specificity mitogen-activated protein kinase kinase; MEK1/2 (Homo sapiens); conditions: LOX, 2 to 10 uM; remark: listed apart in the source
Description: Inhibition of MEK1/2 in human LOX cells assessed as upregulation of p27 expression at 2 to 10 uM by Western blot analysis

[3] = Cmax in human HT-29 cells expressing B-Raf V600E mutant xenografted nude mouse at 100 mg/kg, po bid; assay type: ADME, organism-based; design: dose 100 mg/kg, route oral; conditions: in vivo
Mus musculus [4] = test: Inhibition of MEK-mediated ERK phosphorylation in po dosed human LOX cells expressing B-Raf V600E mutant xenografted nude mouse plasma by Western blot analysis; assay type: functional, organism-based
[5] = Drug level in human LOX cells expressing B-Raf V600E mutant xenografted nude mouse tumor at 100 mg/kg, po after 4 hrs; assay type: ADME, organism-based, Neoplasm; design: dose 100 mg/kg, route oral; conditions: read-out: Drug uptake
[6] = AUC (0 to 12 hrs) in human MIAPaCa2 cells expressing K-Ras G12C mutant xenografted nude mouse at 50 mg/kg, po bid; assay type: ADME, organism-based, MIA PaCa-2; design: time < 12 hr, dose 50 mg/kg, route oral; conditions: in vivo
HT-29 [7] = test: Growth inhibition of human HT-29 cells expressing B-Raf V600E mutant by MTT assay; assay type: functional, cell-based
[8] = Plasma concentration in human HT-29 cells expressing B-Raf V600E mutant xenografted nude mouse at 100 mg/kg, po after 2 hrs; assay type: ADME, organism-based; design: dose 100 mg/kg, route oral
[9] = target: Dual specificity mitogen-activated protein kinase kinase 1 (Homo sapiens, UniProt Q02750); test: Inhibition of MEK1 in human H460 cells assessed as inhibition of ERK phosphorylation by Western blot analysis; assay type: cell-based
Dual specificity mitogen-activated protein kinase kinase 1, sequence (Q02750 whole entry): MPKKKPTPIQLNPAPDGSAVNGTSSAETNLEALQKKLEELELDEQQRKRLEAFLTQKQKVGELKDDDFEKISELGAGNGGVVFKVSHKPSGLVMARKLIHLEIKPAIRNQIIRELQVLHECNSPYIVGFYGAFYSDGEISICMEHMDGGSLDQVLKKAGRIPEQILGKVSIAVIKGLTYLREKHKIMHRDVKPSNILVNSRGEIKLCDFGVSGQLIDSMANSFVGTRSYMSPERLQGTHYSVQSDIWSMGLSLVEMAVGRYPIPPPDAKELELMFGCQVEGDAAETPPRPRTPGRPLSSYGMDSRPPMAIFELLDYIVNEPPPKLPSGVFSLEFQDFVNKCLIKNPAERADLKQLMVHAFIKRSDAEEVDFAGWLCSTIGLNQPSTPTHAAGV

[10] = Plasma concentration in human HT-29 cells expressing B-Raf V600E mutant xenografted nude mouse at 50 mg/kg, po after 12 hrs; assay type: ADME, organism-based; design: dose 50 mg/kg, route oral
[11] = Drug level in human HT-29 cells expressing B-Raf V600E mutant xenografted nude mouse tumor at 50 mg/kg, po after 12 hrs; assay type: ADME, organism-based, Neoplasm; design: dose 50 mg/kg, route oral; conditions: read-out: Drug uptake
HT-29 [12] = test: Reversible growth inhibition of human HT-29 cells expressing B-Raf V600E mutant measured up to 3 days by MTT assay; assay type: functional, cell-based
MIA PaCa-2 = test: Antitumor activity against human MIAPaCa2 cells expressing K-Ras G12C mutant xenografted in nude mouse assessed as tumor growth inhibition at 25 mg/kg, po bid; assay type: functional; conditions: read-out: GI
Mus musculus [13] = test: Toxicity in human HT-29 cells expressing B-Raf V600E mutant xenografted nude mouse assessed as gross signs of adverse effect at 25 to 100 mg/kg, po bid for 3 weeks; assay type: organism-based; design: dose 25-100 mg/kg, route oral; conditions: in vivo, 504 h
[14] = Drug level in human LOX cells expressing B-Raf V600E mutant xenografted nude mouse tumor at 100 mg/kg, po after 8 hrs; assay type: ADME, organism-based, Neoplasm; design: dose 100 mg/kg, route oral; conditions: read-out: Drug uptake
[15] = target: T1, Dual specificity mitogen-activated protein kinase kinase; MEK1/2 (Homo sapiens); conditions: LOX, 2 to 10 uM; remark: listed apart in the source
Description: Inhibition of MEK1/2 in human LOX cells assessed as down regulation of CDK4/cyclin D1 expression at 2 to 10 uM by Western blot analysis

[16] = Cmax in human H460 cells expressing K-Ras Q61H mutant xenografted nude mouse at 25 mg/kg, po bid; assay type: ADME, organism-based; design: dose 25 mg/kg, route oral; conditions: in vivo
[17] = AUC (0 to 12 hrs) in human HT-29 cells expressing B-Raf V600E mutant xenografted nude mouse at 50 mg/kg, po bid; assay type: ADME, organism-based; design: time < 12 hr, dose 50 mg/kg, route oral; conditions: in vivo
[18] = Cmax in human H460 cells expressing K-Ras Q61H mutant xenografted nude mouse at 100 mg/kg, po bid; assay type: ADME, organism-based; design: dose 100 mg/kg, route oral; conditions: in vivo
Mus musculus [19] = test: Inhibition of MEK-mediated ERK phosphorylation in tumor of human HT-29 cells expressing B-Raf V600E mutant xenografted nude mouse at 50 mg/kg, po after 12 hrs by Western blot analysis relative to control; assay type: functional; conditions: HT-29, 12 h
HT-29 [20] = test: Antitumor activity against human HT-29 cells expressing B-Raf V600E mutant xenografted in nude mouse assessed as tumor growth inhibition at 100 mg/kg, po bid; assay type: functional; conditions: read-out: GI
[21] = Plasma concentration in human HT-29 cells expressing B-Raf V600E mutant xenografted nude mouse at 50 mg/kg, po after 8 hrs; assay type: ADME, organism-based; design: dose 50 mg/kg, route oral
[22] = Cmax in human LOX cells expressing B-Raf V600E mutant xenografted nude mouse at 6.25 mg/kg, po bid; assay type: ADME, organism-based; design: dose 6.25 mg/kg, route oral; conditions: in vivo
[23] = AUC (0 to 24 hrs) in human MIAPaCa2 cells expressing K-Ras G12C mutant xenografted nude mouse at 200 mg/kg, po qd; assay type: ADME, organism-based, MIA PaCa-2; design: time < 24 hr, dose 200 mg/kg, route oral; conditions: in vivo
[24] = AUC (0 to 12 hrs) in human LOX cells expressing B-Raf V600E mutant xenografted nude mouse at 6.25 mg/kg, po bid; assay type: ADME, organism-based; design: time < 12 hr, dose 6.25 mg/kg, route oral; conditions: in vivo
Mus musculus [25] = test: Average drug concentration in human LOX cells expressing B-Raf V600E mutant xenografted nude mouse plasma at 12.5 mg/kg, po bid; assay type: ADME, organism-based; design: dose 12.5 mg/kg, route oral; conditions: in vivo
Mus musculus [26] = test: Average drug concentration in human LOX cells expressing B-Raf V600E mutant xenografted nude mouse plasma at 25 mg/kg, po bid; assay type: ADME, organism-based; design: dose 25 mg/kg, route oral; conditions: in vivo
Mus musculus [27] = test: Average drug concentration in human MIAPaCa2 cells expressing K-Ras G12C mutant xenografted nude mouse plasma at 200 mg/kg, po qd; assay type: ADME, organism-based, MIA PaCa-2; design: dose 200 mg/kg, route oral; conditions: in vivo
Mus musculus [28] = test: Inhibition of MEK-mediated ERK phosphorylation in tumor of human LOX cells expressing B-Raf V600E mutant xenografted nude mouse at 100 mg/kg, po after 2 hrs by Western blot analysis relative to control; assay type: functional
[29] = AUC (0 to 12 hrs) in human H460 cells expressing K-Ras Q61H mutant xenografted nude mouse at 100 mg/kg, po bid; assay type: ADME, organism-based; design: time < 12 hr, dose 100 mg/kg, route oral; conditions: in vivo
Mus musculus [30] = test: Average drug concentration in human MIAPaCa2 cells expressing K-Ras G12C mutant xenografted nude mouse plasma at 25 mg/kg, po bid; assay type: ADME, organism-based, MIA PaCa-2; design: dose 25 mg/kg, route oral; conditions: in vivo
[31] = Cmax in human MIAPaCa2 cells expressing K-Ras G12C mutant xenografted nude mouse at 100 mg/kg, po bid; assay type: ADME, organism-based, MIA PaCa-2; design: dose 100 mg/kg, route oral; conditions: in vivo
[32] = AUC (0 to 12 hrs) in human MIAPaCa2 cells expressing K-Ras G12C mutant xenografted nude mouse at 25 mg/kg, po bid; assay type: ADME, organism-based, MIA PaCa-2; design: time < 12 hr, dose 25 mg/kg, route oral; conditions: in vivo
NCI-H460 = test: Antitumor activity against human H460 cells expressing K-Ras Q61H mutant xenografted in nude mouse assessed as tumor growth inhibition at 200 mg/kg, po bid; assay type: functional; conditions: read-out: GI
Mus musculus [33] = test: Inhibition of MEK-mediated ERK phosphorylation in tumor of human LOX cells expressing B-Raf V600E mutant xenografted nude mouse at 100 mg/kg, po after 12 hrs by Western blot analysis relative to control; assay type: functional
Mus musculus [34] = test: Toxicity in human LOX cells expressing B-Raf V600E mutant xenografted nude mouse assessed as gross signs of adverse effect at 6.25 to 200 mg/kg, po bid for 3 weeks; assay type: organism-based; design: dose 6.25-200 mg/kg, route oral; conditions: in vivo, 504 h
Cynomolgus monkey = test: Inhibition of MEK in po dosed cynomolgus monkey peripheral blood mononuclear cells assessed as inhibition of PMA-stimulated ERK phosphorylation after 1 to 24 hrs by flow cytometry; assay type: functional, organism-based; conditions: Macaca fascicularis
Mus musculus [35] = test: Toxicity in human LOX cells expressing B-Raf V600E mutant xenografted nude mouse assessed as gross signs of adverse effect at 500 mg/kg, po administered weekly once for 3 weeks; assay type: organism-based; design: dose 500 mg/kg, route oral; conditions: in vivo, 504 h

T1 sequence (P36507 whole entry, looked up): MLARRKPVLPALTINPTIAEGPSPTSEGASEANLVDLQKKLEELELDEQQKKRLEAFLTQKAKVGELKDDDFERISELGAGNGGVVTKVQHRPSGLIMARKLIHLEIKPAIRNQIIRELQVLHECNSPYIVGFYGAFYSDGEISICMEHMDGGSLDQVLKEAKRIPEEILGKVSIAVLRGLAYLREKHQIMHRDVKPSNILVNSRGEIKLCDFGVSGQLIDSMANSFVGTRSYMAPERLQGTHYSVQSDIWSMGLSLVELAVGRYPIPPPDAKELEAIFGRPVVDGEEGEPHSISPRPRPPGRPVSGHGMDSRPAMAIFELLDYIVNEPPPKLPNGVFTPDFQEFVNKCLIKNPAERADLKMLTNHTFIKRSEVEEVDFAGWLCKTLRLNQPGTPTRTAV
T1 sequence (Q02750 whole entry, looked up): as the sequence (Q02750 whole entry) above

## C[C@@H](c1ccccc1)[C@@H](C(=O)Nc1ccc(I)cc1F)N1C(=O)N[C@H](c2ccc(OC[C@H](O)CO)cc2)C1=O
[1]
  inhibition: Active
[2]
  inhibition: Active
[3]
  Cmax: 4070 ng/mL
Mus musculus [4]
  EC50: 1.36 µM
[5]
  concentration at 4 h: 2630 ng/g
[6]
  AUC at 12 h: 18800 ng·h/mL
HT-29 [7]
  IC50: 0.11 µM
  IC90: 0.56 µM
HT-29 [7]; TDE = time-dependent effect
  growth inhibition (GI): tde
[8]
  concentration at 2 h: 9360 ng/mL
[9]
  IC50: 0.082 µM
[10]
  concentration at 12 h: 61 ng/mL
[11]
  concentration at 12 h: 188 ng/g
HT-29 [12]
  Activity: Active
MIA PaCa-2
  inhibition in vivo at 25 mg/kg: 71%
Mus musculus [13]
  Activity: Non-toxic
[14]
  concentration at 8 h: 1160 ng/g
[15]
  inhibition: Active
[16]
  Cmax: 2750 ng/mL
[17]
  AUC at 12 h: 7310 ng·h/mL
[18]
  Cmax: 16900 ng/mL
Mus musculus [19]
  inhibition in vivo at 50 mg/kg: 0%
HT-29 [20]
  inhibition in vivo at 100 mg/kg: 95%
[21]
  concentration at 8 h: 1260 ng/mL
[22]
  Cmax: 750 ng/mL
[23]
  AUC at 24 h: 66200 ng·h/mL
[24]
  AUC at 12 h: 3970 ng·h/mL
Mus musculus [25]
  Cave: 388 ng/mL
Mus musculus [26]
  Cave: 833 ng/mL
Mus musculus [27]
  Cave: 2758 ng/mL
Mus musculus [28]
  inhibition in vivo at 100 mg/kg: 86%
[29]
  AUC at 12 h: 62900 ng·h/mL
Mus musculus [30]
  Cave: 1058 ng/mL
[31]
  Cmax: 9650 ng/mL
[32]
  AUC at 12 h: 12700 ng·h/mL
NCI-H460
  inhibition in vivo at 200 mg/kg: 80%
Mus musculus [33]
  inhibition in vivo at 100 mg/kg: 12%
Mus musculus [34]
  Activity: Non-toxic
Cynomolgus monkey
  EC50: 1.41 µM
Mus musculus [35]
  Activity: Non-toxic

Source: ChEMBL document CHEMBL1955803, “Preclinical in vivo evaluation of efficacy, pharmacokinetics, and pharmacodynamics of a novel MEK1/2 kinase inhibitor RO5068760 in multiple tumor models” (Mol Cancer Ther, 2010)
